According to patent publication US9440913B2, “Dihydroxybenzene derivatives and antiprotozoal agent comprising same as active ingredient” (NAI INC., priority 2010, dated 2016):

Key:
[1] = tested on: glycerol-3-phosphate-dependent respiration; settings: mitochondrial specimen of T. brucei brucei multiplied in the rat bloodstream; cited from earlier work
[2] = target: T1, recombinant Trypanosome AOX (TAO) enzyme (Trypanosoma brucei brucei, UniProt Q26710); test: TAO enzyme inhibition (quinol oxidase activity, ubiquinol-1 substrate); type: biochemical, T. brucei brucei; settings: TAO-expressing E. coli membrane fraction, 25° C., ubiquinol-1, absorbance at 278 nm
T1 construct: made in house; host or cells: Escherichia coli (membrane fraction)
T1 sequence (Q26710 whole entry): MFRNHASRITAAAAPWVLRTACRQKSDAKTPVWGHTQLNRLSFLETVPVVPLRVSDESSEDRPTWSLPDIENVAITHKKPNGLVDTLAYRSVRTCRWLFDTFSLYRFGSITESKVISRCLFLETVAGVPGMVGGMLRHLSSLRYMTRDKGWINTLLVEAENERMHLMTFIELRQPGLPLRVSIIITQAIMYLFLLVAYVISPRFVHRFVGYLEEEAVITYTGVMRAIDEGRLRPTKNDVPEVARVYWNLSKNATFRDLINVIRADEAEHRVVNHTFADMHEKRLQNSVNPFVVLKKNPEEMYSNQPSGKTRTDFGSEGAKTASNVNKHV
Procedure, shortened: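 E. coli membranes expressing T. brucei brucei TAO (0.35 ng) pre-incubated with inhibitor in 50 mM Tris-HCl pH 7.5, 4 min at 25 °C. Reaction started with ubiquinol-1; quinol oxidation followed as absorbance change at 278 nm.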

[3] = tested on: T. b. rhodesiense; test: Treatment of mice infected with T. b. rhodesiense (cure and survival); type: in vivo; settings: for Cured/Infected: i.p., five doses at 6 hour interval
Protocol: Mice were infected with T. b. rhodesiense, a protozoan that causes acute symptoms at 1×10^3 cells/mouse, administration of medication in mice was started 24 hours after the infection, and the mice received five doses of each drug at the dosing interval of 6 hours. Mice were all infected and treated intraperitoneally (i.p). Mice that have no Trypanosomatid protozoan in the blood and survive even 60 days or more after the end of treatment were determined to be cured. Survival days represents an average survival time after treatment in mice that died from infection; therefore, survival days for the group of cured mice are not described in Table 2.

[4] = target: Cryptosporidium cyanide insensitive oxidase (AOX), recombinant protein (cCpAOX) (Cryptosporidium parvum, UniProt Q761U6); test: CpAOX enzyme inhibition; type: biochemical
Sequence of Cryptosporidium cyanide insensitive oxidase (AOX), recombinant protein (cCpAOX) (Q761U6 entry or part of it): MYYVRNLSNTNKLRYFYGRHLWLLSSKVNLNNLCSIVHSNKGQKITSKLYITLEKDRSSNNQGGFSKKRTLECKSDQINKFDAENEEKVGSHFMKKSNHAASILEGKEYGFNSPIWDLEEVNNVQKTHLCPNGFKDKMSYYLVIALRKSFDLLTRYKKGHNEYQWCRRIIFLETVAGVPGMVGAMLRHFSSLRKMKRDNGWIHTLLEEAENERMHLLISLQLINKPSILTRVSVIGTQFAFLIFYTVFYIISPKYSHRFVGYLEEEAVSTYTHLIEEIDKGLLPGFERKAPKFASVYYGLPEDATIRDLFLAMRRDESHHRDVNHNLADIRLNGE
From the text: Cryptosporidium has found to have cyanide insensitive oxidase (AOX), and its inhibitory activity was observed using its recombinant protein (cCpAOX) produced in E. coli.

[5] = tested on: T. b. rhodesiense IL1501; test: Antiprotozoal effect, MIC measurement in HMI-9 culture; type: cell-based; settings: Trypanosoma brucei, RHODESIENSE, 24 h, bloodstream forms, 18 + 6 hours culture
Procedure, shortened: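 Bloodstream-form T. b. rhodesiense IL1501 were grown in HMI-9 medium at 37° C. with 5% CO2. Three-fold serial drug dilutions from DMSO stocks were made in 96-well plates in HMI-9, with or without glycerol (final 5 mM), and 5×10^4 cells/well added. After 18 hours plus 6 more hours of culture, wells were checked by microscope; MIC was the lowest concentration showing no motile survivors.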

[6] = Glycerol (+), final concentration of glycerol of 5 mM

SMILES | absolute amounts of 50% inhibition [1] | IC50 [2] [nM] | Cured/Infected ([3]; Glycerol dose 1.25 g/kg) | IC50 [4] [nM] | MIC [5, 6] [nM] | MIC ([5]; Glycerol (−)) [nM] | other results
CCCC[C@H]1C(=O)O[C@H](C)[C@H](NC(=O)c2cccc(NC=O)c2O)C(=O)O[C@@H](C)[C@@H]1OC(=O)CC(C)C [Antimycin A3] | 48,600 pmol/mg protein |  |  |  |  |  | 
CO/C(=C/C(N)=O)[C@H](C)[C@H](/C=C/c1csc(-c2csc([C@@H](C)/C=C/C=C/C(C)C)n2)n1)OC [myxothiazol] | 21,500 pmol/mg protein |  |  |  |  |  | 
C/C=C(C)/C=C/C=C/[C@H](OC)[C@@H](C)[C@@H](OC)[C@@H](C)CCc1oc2c(O)c(OC)cc(OC)c2c(=O)c1C [stigmatellin] | 18,600 pmol/mg protein |  |  |  |  |  | 
CC(=O)OC(C)/C(C)=C/CC/C(C)=C/Cc1c(O)c(Cl)c(C)c(C=O)c1O (stereo not drawn) [Compound 277-11-OAc, (3E,7E)-9-(3-Chloro-5-formyl-2,6-dihydroxy-4-methyl)phenyl-3,7-dimethyl-3,7-nonadie2-yl acetate] |  | 1.2 | 4/4 | 1.5 | 0.082 | 2.3 | 
C/C(=C\Cc1c(O)c(Cl)c(C)c(C=O)c1O)CC/C=C(\C)[C@@H]1CC(=O)C(C)(C)O1 (racemic) [Ascofuranone, dl-5-Chloro-2,4-dihydroxy-6-methyl-3-[(2E,6E)-3-methyl-7-(3,3-dimethyl-4-oxo-2-oxacyclopentyl)-2,6-octadienyl]benzaldehyde] | 25 pmol/mg protein |  | 5/5 |  |  |  | Survival days ([3]; Glycerol dose 0, average survival time after treatment in mice that died from infection): 12 days; Cured/Infected ([3]; Glycerol dose 0, start 24 hours after infection, cured = no protozoan in blood and survival 60 days or more): 0/5; Survival days ([3]; Glycerol dose 50 mg/kg, average survival time of mice that died from infection): 12 days; Cured/Infected ([3]; Glycerol dose 50 mg/kg): 0/5; Survival days ([3]; Glycerol dose 750 mg/kg, average survival time of mice that died from infection): 21 days; Cured/Infected ([3]; Glycerol dose 750 mg/kg): 2/3
C/C(=C\Cc1c(O)c(Cl)c(C)c(C=O)c1O)CC/C=C(\C)C(C)O (stereo not drawn) [Compound 277-9-OH] |  | 0.48 | 4/4 | 2.5 | 0.048 | 74 | 
